Consider two compounds from patent publication US20200010910A1, “Cytotoxic Chemotherapy-Based Predictive Assays for Acute Myeloid Leukemia” (The Regents of The University of California, priority 2017, published 2020).

Series [1] deals with five bladder cancer cell lines (5637, T24, TCCSUP, HT1197, and J82). Kind of series: oxaliplatin-DNA adducts by AMS in cell culture. It is filed as cell-based. The conditions noted are these: 4 hours. As to the method: Cells were seeded in 60-mm dishes at a density of 1×10^6 cells/dish and allowed to attach overnight in a 37° C. humidified atmosphere containing 5% C02. […] The cells were then washed twice with phosphate-buffered solution (PBS) and maintained thereafter with oxaliplatin-free culture media. DNA was harvested at hours 0, 2, 4, 8, 24 hours using the modified Wizard procedure described previously. Ten micrograms of DNA per sample was converted to graphite and measured by AMS for ^14C quantification. Triplicate sets of AMS experiments were performed and the data was plotted as time vs oxaliplatin-DNA adducts per 10^8 nt. […] Oxaliplatin-DNA monoadducts could be detected in all cell lines at all time points. […] Therefore, drug-DNA damage from microdoses of oxaliplatin are predictive of the extent of DNA modification caused by the therapeutic dose in cell culture.

For series [2] the following is noted: chemotherapy; cited from earlier work.
Series [3] in a line: human plasma pharmacokinetics of [14C]oxaliplatin microdose. It is filed as in vivo. The conditions noted are these: metastatic breast cancer patient; IV microdose.
Method: Peripheral blood specimens were drawn into BD Vacutainer CPT™ tubes with sodium heparin from the other arm at specific time points before and after the administration of the microdose. Plasma samples collected at −5 min, 5 min, 15 min, 30 min, 2 h, 4 h, 8 h, 24 h, and 48 h post microdose injection were analyzed by liquid scintillation counting (FIG. 17A).
Series [4] relates to tumor biopsy sample from the bone marrow. As to the kind of experiment: microdose-induced oxaliplatin-DNA adducts in patient tumor biopsy. It is filed as in vivo, human. The conditions noted are these: metastatic breast patient; 48 hours post microdose; n=2 repeats. As to the method: Therefore, a tumor biopsy sample from the bone marrow of this same metastatic breast patient was collected 48 hours post microdose administration and analyzed by AMS for oxaliplatin-DNA adducts. […] Therefore, in one embodiment, a useful range of oxaliplatin-DNA adduct frequency after microdosing is 0.5-50 adducts per 10^8 nt.

In series [5] the test system is 5637. As to the kind of experiment: MTT assay IC50, bladder cancer cell line. It is filed as cell-based, human. The conditions noted are these: 72 hours. As to the method:
Thus, we measured the IC50 of the six NSCLC cell lines from Example 2 to both cisplatin and carboplatin to determine if the sensitivity of these six NSCLC cell lines to the two drugs are correlated.
(§1) Drug-DNA adduct formation and repair was measured by accelerator mass spectrometry.
(§2) These two cell lines were also cultured with a range of concentrations of cisplatin, carboplatin, gemcitabine, doxorubicin, methotrexate and vinblastine for 72 hours to determine IC50 for these other drugs (FIG. 16C). These drugs were chosen because of their frequent use in the treatment of bladder cancer.
A general note: Tetrazolium dyes change colour on reduction, which living cells bring about.

For series [6] the following is noted: sterile solution in water, storage at −20° C.
Method: Radiolabeled carboplatin containing C^14 carbon atoms in the cyclobutane dicarboxylic acid group was formulated for human use as a sterile, pyrogen free solution at 5 mg/mL in water.
Series [7] is described as follows: safety of radiolabeled microdose in patients. The conditions noted are these: IV microdose, 1% of the therapeutic dose.
Method: Microdoses of the [^14C]Carboplatin were administered to human cancer patients as a diagnostic reagent, followed by full dose platinum-based chemotherapy and evaluation of response. Within four weeks of the [^14C]carboplatin microdose, these patients received standard of care chemotherapy for their disease, which included either carboplatin or cisplatin. The patient population consisted of non-small cell lung cancer patients (NSCLC), stage IV with measurable lesions, and bladder transitional cell carcinoma (TCC) patients, stage II disease and above for neoadjuvant treatment, or stage III and IV metastatic disease with measurable lesions for palliative chemotherapy. Patients were identified for this study as having measurable lesions using the Response Evaluation Criteria in Solid Tumor (RECIST), an Eastern Cooperative Oncology Group performance status of <2, and adequate bone marrow and vital organ function. PBMC and tumor tissue were collected from the patients for analysis of carboplatin-DNA monoadduct frequencies. Toxicity of the [^14C]carboplatin diagnostic reagent administered as a microdose was assessed using Common Terminology Criteria for Adverse Events (CTCAE). Toxicities of grade 3 and above were also collected for patient specific toxic response to full dose chemotherapy for correlation analysis to carboplatin-DNA monoadduct frequency. Patient response to chemotherapy was evaluated using the RECIST for correlation to carboplatin-DNA monoadduct frequency.
The dose of carboplatin in the diagnostic microdose was chosen to be sub-toxic and non-therapeutic, to minimize patient chemical and radiation exposure, and to result in AMS measurable carboplatin-DNA monoadducts. Nineteen patients have been administered at least one microdose of [^14C]carboplatin via IV infusion as a diagnostic reagent. Patient toxicity related to the microdose was monitored from the time of IV microdose until the patients received their first chemotherapy. […] The total radioactive dose given to a 75 kg patient after an IV microdose of [^14C]carboplatin is calculated to be 338 μCi. […]
The subject of series [8] is 5637R. As to the kind of experiment: oxaliplatin-DNA adduct formation and repair by AMS. It is filed as cell-based, human. As to the method:
(§3) To characterize the oxaliplatin-DNA adduct frequency in these cell lines, cells from each cell line were seeded in 60-mm dishes at a density of 1×10^6 cells/dish and allowed to attach overnight in a 37° C. humidified atmosphere containing 5% CO2. […] The cells were then washed twice with phosphate-buffered solution (PBS) and maintained thereafter with oxaliplatin-free culture media. DNA was harvested at hours 0, 2, 4, 8, 24, 28 and 48 hours using a Promega Wizard DNA Purification Kit. Ten micrograms of DNA per sample was converted to graphite and measured by AMS for ^14C quantification. Triplicate sets of AMS experiments were performed and the data was plotted as time vs oxaliplatin-DNA adducts per 10^8 nt.

The test system of series [9] is 5637. As to the kind of experiment: oxaliplatin-DNA adduct formation and repair by AMS. It is filed as cell-based, human. As to the method: as §3
The subject of series [10] is 5637R. Kind of series: MTT assay IC50, oxaliplatin-resistant bladder cancer sub-line. It is filed as cell-based, human. As to the method:
as §1
To confirm that 5637 was the original ATCC cell line, and that 5637R originated from the parental 5637 cell line, both cultures were sent to the ATCC Cell Line Authentication Service for cell verification per the ATCC protocol. More specifically, fifteen short tandem repeat (STR) loci plus the gender determining locus, amelogenin, were amplified using the commercially available PowerPlex® 16HS Kit from Promega.
as §2

For the next series, the system named is PBMC. Kind of series: microdose-induced oxaliplatin-DNA adducts in patients. It is filed as in vivo, human. As to the method: The plasma samples were additionally processed to isolate PBMC, and the DNA was extracted and analyzed using AMS to calculate the oxaliplatin-DNA adduct frequency (both monoadducts and diadducts combined) (FIG. 17B). […] These adduct levels then decrease substantially out to 48 hours post microdosing. […] Overall, the plasma PK and time course of oxaliplatin-DNA adduct formation and repair in PBMC allowed determination of the best time to dose patients prior to biopsy in order to maximize the oxaliplatin-DNA adduct formation, allow for repair in those patients with high repair capacity, minimize the risk of radioactive contamination of PBMC and tumor samples, and also minimize the risk of radioactive contamination of the operating room by blood-borne radiocarbon.
Plasma samples were collected, filtered, and counted by liquid scintillation counting to determine plasma oxaliplatin levels. […] The range of microdose-induced adduct levels (frequencies) for the three colorectal patients was 0.1-6 adducts per 10^8 nt.

Series [11] concerns 5637 and 5637R bladder cancer cell lines. As to the kind of experiment: cytarabine-DNA adducts by AMS, CIV and bolus type treatment. It is filed as cell-based, human. The conditions noted are these: low dose or high dose; CIV and bolus treatment regimens. As to the method: Sensitive and resistant bladder cancer cells were treated with Ara-C in culture. Two treatment conditions were used, one to mimic clinically continuous infusion (CIV) and one to mimic clinically bolus infusion (bolus infusions use a much higher Ara-c dose). The day before treatment, one million bladder cancer cells were seeded in 60-mm dishes and allowed to attach overnight. To simulate CIV treatment, the bladder cancer cell lines were exposed in growth medium with a low (10 nM) or a high (1 μM) dose of ARA-C supplemented with 8 nM ^14C-labeled ARA-C(1000 dpm/mL-20-0.4 mCi/mmol specific activity (Moravek Biochemicals, Inc.) over 24 h (FIG. 25A). At 24 hrs, the cells were harvested and washed for subsequent DNA isolation using the Wizard Genomic DNA Purification Kit. To simulate bolus treatment, the bladder cancer cell lines were exposed in growth medium with a low dose (3 μM) or a high dose ([…]; a highly toxic concentration for these cell lines) supplemented with 0.8 nM ^14C-labeled ARA-C (0.0001 mCi/mmol specific activity) for 4 h, followed by 20 h in drug-free media (FIG. 25B). After a 4-hour incubation, the cells were washed three times with PBS and cultured in drug-free media for an additional 20 hours. DNA from cells isolated at 24 hours was then purified. […] The ratios of ^14C to total C were measured by AMS, and drug-DNA adducts per ten million nucleotides were calculated.

For series [12], the system named is MOLM-13. As to the kind of experiment: ARA-C incorporation into DNA by AMS. It is filed as cell-based, human. The conditions noted are these: MOLM-13 (most sensitive); 1.6 nM or 16 nM ARA-C 24 hrs. As to the method: (§4) MV-4-11, THP-1, and MOLM-13 cells are human, immortalized, myelogenous leukemia cell lines that proliferate continuously in suspension. These cell lines serve as a cell culture model for AML. Suspension cultures consisting of two million cells in […] culture dishes were treated with ARA-C for 24 hrs (to simulate CIV) prior to DNA isolation. The cultures were dosed with a low (1.6 nM) or a high (16 nM) dose of ARA-C supplemented with 0.8 nM ^14C-labeled ARA-C (100 dpm/mL, 2.4-16.7 mCi/mmol specific activity), and isolated DNA was analyzed by AMS to determine drug-DNA adduct levels. The suspension cell lines were dosed in primary cell media (IMDM+20% BIT9500 serum substitute, 20 ng/mL IL-3, 10 ng/mL IL-6, 20 ng/mL G-CSF, 20 ng/mL GM-CSF, 50 ng/mL SCF) to mimic the dosing conditions that will be used for patient-derived AML samples. This media is used for short term culturing of primary AML cells that are previously collected from patients, frozen and stored in a biobank.

In series [13] the test system is THP-1. As to the kind of experiment: ARA-C incorporation into DNA by AMS. It is filed as cell-based, human. The conditions noted are these: THP-1 (least sensitive); 1.6 nM or 16 nM ARA-C 24 hrs. As to the method:
as §4

Another series has as its system MV-4-11. Kind of series: CellTiter 96 Aqueous cell proliferation assay. It is filed as cell-based. The conditions noted are these: Homo sapiens, MV4-11, 72 hr continuous treatment. From the text:
(§5) Correlation of IC50 to the AML induction drugs Dox and Ara-C were first performed with the adherent bladder cancer cell lines 5637 and 5637R for cytarabine and with the adherent ovarian cancer cell lines A2780 and A2780ADR for doxorubicin. Cell lines 5637 and 5637R (Ara-C resistant) have been described previously (20). A2780 and A2780ADR (doxorubicin resistant) were purchased from Sigma-Aldrich and grown as recommended. IC50 values were obtained by plating 4000 cells per well in 96-well plates the night before treatment, and then allowing the cells to adhere over night. Leukemia cell lines capable of continuous proliferation in suspension and having differential sensitivities to Dox and Ara-C were also obtained for correlation analysis. MV-4-11 (acute monocytic leukemia) and THP-1 (acute monocytic leukemia) human cell lines were purchased from American Type Culture Collection (ATCC, Manassas, Va.). MOLM-13 (acute myeloid leukemia) human cells were purchased from AddexBio (San Diego, Calif.). For leukemia cell lines (suspension cultures), approximately 8,000-11,000 cells were seeded per well in 96-well plates the day of treatment. MV-4-11 cells were grown in IMDM (Iscove's Modified Dulbecco's Media) with 10% FBS, 100 U/ml penicillin, and 100 μg/ml streptomycin. THP-1, A2780, and A2780ADR cells were grown in RPMI-1640 media with 10% FBS, 100 U/ml penicillin, and 100 μg/ml streptomycin. 5637, 5637R, and MOLM-13 cells were grown in RPMI-1640 media with 20% FBS, 100 U/ml penicillin, and 100 μg/ml streptomycin. All cells were cultured at 37° C. in a humidified incubator. The cells were then incubated with increasing doses of cytarabine or doxorubicin continuously for 72 hours. IC50 values were determined using the CellTiter 96 Aqueous Non-Radioactive Cell Proliferation Assay (Promega). […] As shown, 5637 and 5673R have differential sensitivity to cytarabine, while A2780 and A2780ADR have differential sensitivity to doxorubicin. The leukemic suspension cell lines also have differential sensitivity to these two drugs.

The subject of series [14] is 5637R. Kind of series: CellTiter 96 Aqueous cell proliferation assay. It is filed as cell-based. The conditions noted are these: Homo sapiens, 72 hr continuous treatment.
Source text: as §5

Series [15] relates to MOLM-13. Kind of series: CellTiter 96 Aqueous cell proliferation assay. It is filed as cell-based. The conditions noted are these: Homo sapiens, 72 hr continuous treatment.
Source text: as §5

The test system of series [16] is 5637. Kind of series: CellTiter 96 Aqueous cell proliferation assay. It is filed as cell-based. The conditions noted are these: Homo sapiens, 72 hr continuous treatment.
Source text: as §5

Series [17] relates to THP-1. Kind of series: CellTiter 96 Aqueous cell proliferation assay. It is filed as cell-based. The conditions noted are these: Homo sapiens, 72 hr continuous treatment.
Source text: as §5

The mark [18] stands for this setting: 24 hour culture without oxaliplatin.

Take `O=C1[O][Pt]2([NH][C@@H]3CCCC[C@H]3[NH]2)[O]C1=O` [oxaliplatin]: the “DNA damage concentrations (oxaliplatin-DNA adducts)” value in series [1] (microdose 0.1 μM oxaliplatin) is reported as 50-100 adducts per 10^8 nt; in series [1] (therapeutic dose 10 μM oxaliplatin), 5,000-10,000 adducts per 10^8 nt. Moreover, the “peak human oxaliplatin plasma concentration during chemotherapy” value in [2] is 10 µM. In addition, in series [3], the “T1/2 (α), first (fast) phase” value stood at 13.3 min. The compound further yielded an oxaliplatin-DNA adduct frequency in [4] of 14.6±4.9 per 10^8 nt. Also, the concentration for half-maximal inhibition (IC50) (as a rule, the concentration that inhibits the measured activity by half) turned out to be 2.45 µM in the series on 5637 [5] and 27.3 µM in the series with 5637R [10] (5637R, 72 hours). Besides, the “loss of radiopurity per year” value in [6] was less than 2%. Moreover, the clinical side effects result in series [7] is on record as “None of the clinical side effects associated with standard therapeutic doses of oxaliplatin were observed”. The “oxaliplatin-DNA adducts at 24 hours” value is listed as 259.2±37.3 adducts per 10^8 nucleotide in the series with 5637R [8] (10 μM for 24 hours) and 710.0±32.2 adducts per 10^8 nucleotide in the series on 5637 [9] (10 μM for 24 hours). Also, the repair rate is recorded as 3.48±0.15 adducts per 10^8 nucleotide-hour in the series on 5637R [8] (setting [18]) and 1.34±0.30 adducts per 10^8 nucleotides-hour in the series with 5637 [9] (setting [18]). Moreover, the “area under curve (AUC) of oxaliplatin-DNA adducts” value with 5637R [8] (48 hour study period) is on record as 9,426±2457 adducts per 10^8 nucleotide-hour; in the series with 5637 [9] (48 hour study period), 27,720±2,985 adducts per 10^8 nucleotide-hour. For the same compound, the “increase of IC50 of 5637R compared to parental 5637” value in the series with 5637R [10] is listed as “approximately 10 fold”. For the same compound, the “maximum oxaliplatin-DNA adducts in PBMC” value in the series with PBMC (metastatic breast cancer patient, first 4 hours after microdose) is listed as 8 adducts per 10^8 nt. In addition, in the series with PBMC (three colorectal patients, PBMC), the “range of microdose-induced adduct levels (frequencies)” value is 0.1-6 adducts per 10^8 nt.

For `Nc1ccn([C@@H]2O[C@H](CO)[C@@H](O)[C@@H]2O)c(=O)n1` [cytarabine], the “cytarabine-DNA adducts in resistant 5637R compared to parent 5637” value in series [11] was “fewer cytarabine-DNA adducts”. The results for the “levels of ARA-C incorporation among three AML cell lines” value in the series on MOLM-13 [12] and in the series with THP-1 [13] were “highest levels of ARA-C incorporation” and “lowest levels of ARA-C incorporation”, respectively. The concentration for half-maximal inhibition (IC50) in the series with MV-4-11 worked out at 0.353 µM; with 5637R [14], 60.1 µM; with MOLM-13 [15] it was 0.018 µM; in the series on 5637 [16] it was 5.69 µM; with THP-1 [17], 4.4 µM.
